The text below walks through data of the NIST ThermoML archive (doi:10.1016/j.fluid.2014.01.004).

Numbers after ± are expanded uncertainties.

For data set [1] the following is noted: DTA.
A short description of data set [2]: Molar enthalpy of transition or fusion. Conditions: DSC.

On to `CCCCCCCCCCCCCCCCO` [1-hexadecanol], for which the Triple point temperature in data set [1] (Crystal 1) is listed as 323.17 ± 0.41 K; in data set [1] (Crystal 2) it was 322.27 ± 0.49 K. Further, the “Molar enthalpy of transition or fusion” value in data set [2] (Crystal 2) was found to be 13.5 ± 0.765 kcal/mol.

In the case of `CCCCCCCCCCCCCCCCCCO` [1-octadecanol], the Triple point temperature in data set [1] (Crystal 1) is 331.82 ± 0.49 K; in data set [1] (Crystal 2) it was 330.97 ± 0.39 K. The “Molar enthalpy of transition or fusion” value in data set [2] (Crystal 2) was 15.6 ± 0.908 kcal/mol.

As to `CCCCCCCCCCCCCCO` [1-tetradecanol], the Triple point temperature in data set [1] (Crystal 1) is 311.39 ± 0.39 K; in data set [1] (Crystal 2), 310.45 ± 0.41 K. Also, in data set [2] (Crystal 2), the “Molar enthalpy of transition or fusion” value stood at 11.4 ± 0.526 kcal/mol.

As to `CCCCCCCCCCCC(=O)O` [dodecanoic acid], the Triple point temperature is given as 318.29 ± 0.41 K in data set [1] (Crystal 1) and 317.9 ± 0.6 K in data set [1] (Crystal 2). In addition, in data set [2] (Crystal 2), the “Molar enthalpy of transition or fusion” value was 8.51 ± 0.335 kcal/mol.

Consider `CCCCCCCCCCCCCCCC(=O)O` [hexadecanoic acid], for which the Triple point temperature in data set [1] (Crystal) turned out to be 336.34 ± 0.63 K. Besides, the “Molar enthalpy of transition or fusion” value in data set [2] (Crystal) was found to be 12.7 ± 0.574 kcal/mol.

`CCCCCCCCCCCCCC(=O)O` [tetradecanoic acid]: the Triple point temperature is 328.13 ± 0.48 K in data set [1] (Crystal 1) and 327.65 ± 0.48 K in data set [1] (Crystal 2). Further, the “Molar enthalpy of transition or fusion” value in data set [2] (Crystal 2) came out at 10.5 ± 0.43 kcal/mol.
